Molecular target: T1, triosephosphate isomerase (TPI) (Saccharomyces cerevisiae, UniProt P00942)
T1 construct: gene TPI1; commercial Triosephosphate isomerase (from S. cerevisiae, Sigma)
T1 sequence (P00942 2-248): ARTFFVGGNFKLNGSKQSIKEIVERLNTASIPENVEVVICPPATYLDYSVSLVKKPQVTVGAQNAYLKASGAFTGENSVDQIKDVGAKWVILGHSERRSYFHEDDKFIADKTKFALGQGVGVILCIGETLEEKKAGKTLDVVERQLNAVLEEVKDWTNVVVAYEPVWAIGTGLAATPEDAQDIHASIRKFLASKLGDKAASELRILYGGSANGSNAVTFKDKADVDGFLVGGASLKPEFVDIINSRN
Assay: coupled alpha-glycerophosphate dehydrogenase/NADH assay (A340) with purified TPI; also in vitro methylglyoxal release by TPI (diaminobenzene adduct)
Format: biochemical

SMILES: N#Cc1c[nH]cc1-c1cccc2c1OC(F)(F)O2 [fludioxonil]
- IC50: ~403 µM

Source: paper PMC6433957, “Phenylpyrrole fungicides act on triosephosphate isomerase to induce methylglyoxal stress and alter hybrid histidine kinase activity” (Scientific Reports, 2019)
